One test addresses IRAK4 (Homo sapiens (Human), UniProt Q9NWZ3). Briefly: IRAK4 enzymatic assay. Type of test: biochemical. The following applies: human recombinant His-TEV-IRAK4, ATP 2 μM, STK1-biotin peptide, FlashPlate. As to the method:
IRAK4 is a human purified recombinant enzyme (His-TEV-IRAK1 (194-712)
IRAK4 hydrolyses ATP, autophosphorylates and phosphorylates a Serine/Threonine generic peptidic substrate (STK: 61ST1BLC from CisBio International based in Bagnols/Cèze FR).
Measurement of IRAK-4 inhibition is performed in streptavidin coated 384 well FlashPlate (PerkinElmer #SMP410A). His-TEV-IRAK4 (20 ng/well), ATP (2 μM, [^33P]ATP 0.25 μCi/well), STK1-biotin peptide (300 nM) and compounds in DMSO (range of concentrations from 20 μM to 1 nM) or controls (2% DMSO) are incubated for 3 hours at 30° C. in assay buffer: Hepes pH7.0 50 mM, Fatty acid-free BSA 0.1%, Dithiothreitol DTT 2 mM, MgCl2 10 mM, EGTA 0.5 mM, Tween-20 0.01%, MnCl2 5 mM. Kinase reaction is stopped by addition of EDTA. Supernatant is discarded, plates are washed three times with 150 mM NaCl and radioactivity is then measured in a Microbeta Trilux reader.

In another test the target is IRAK1 (Homo sapiens (Human), UniProt P51617). Briefly: IRAK1 enzymatic assay. The following applies: human recombinant His-TEV-IRAK1, ATP 1 μM, FlashPlate. In kind it is biochemical. As to the method: IRAK1 is a human purified recombinant enzyme (His-TEV-IRAK1 (194-712)) In this assay, IRAK-1 hydrolyses ATP and autophosphorylates.
Measurement of IRAK-1 inhibition is performed in streptavidin coated 384 well FlashPlate (PerkinElmer #SMP410A).
His-TEV-IRAK-1 (15 ng/well), ATP (1 μM, [^33P]ATP 0.25 μCi/well) and compounds in DMSO (range of concentrations from 20 μM to 1 nM) or controls (2% DMSO) are incubated for 3 hours at 30° C. in assay buffer: Hepes pH7.0 50 mM, Fatty acid-free BSA 0.1%, Dithiothreitol DTT 2 mM, MgCl2 10 mM, EGTA 0.5 mM, Triton-X-100 0.01%. Kinase reaction is stopped by addition of EDTA. Supernatant is discarded, plates are washed three times with 150 mM NaCl and radioactivity is then measured in a Microbeta Trilux reader.

Chain of IRAK4 (Q9NWZ3 whole entry): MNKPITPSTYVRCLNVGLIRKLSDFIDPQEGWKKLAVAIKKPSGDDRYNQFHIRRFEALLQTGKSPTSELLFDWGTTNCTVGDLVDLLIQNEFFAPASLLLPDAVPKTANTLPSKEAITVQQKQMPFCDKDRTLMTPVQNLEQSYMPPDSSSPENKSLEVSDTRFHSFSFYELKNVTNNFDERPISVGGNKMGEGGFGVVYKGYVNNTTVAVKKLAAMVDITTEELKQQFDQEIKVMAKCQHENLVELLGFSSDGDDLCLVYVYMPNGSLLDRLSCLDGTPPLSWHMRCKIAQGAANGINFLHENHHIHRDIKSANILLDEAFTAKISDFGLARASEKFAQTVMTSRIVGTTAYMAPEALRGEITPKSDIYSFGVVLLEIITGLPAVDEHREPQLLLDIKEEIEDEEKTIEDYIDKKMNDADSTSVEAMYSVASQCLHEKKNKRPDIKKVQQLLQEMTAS
Chain of IRAK1 (P51617 194-712): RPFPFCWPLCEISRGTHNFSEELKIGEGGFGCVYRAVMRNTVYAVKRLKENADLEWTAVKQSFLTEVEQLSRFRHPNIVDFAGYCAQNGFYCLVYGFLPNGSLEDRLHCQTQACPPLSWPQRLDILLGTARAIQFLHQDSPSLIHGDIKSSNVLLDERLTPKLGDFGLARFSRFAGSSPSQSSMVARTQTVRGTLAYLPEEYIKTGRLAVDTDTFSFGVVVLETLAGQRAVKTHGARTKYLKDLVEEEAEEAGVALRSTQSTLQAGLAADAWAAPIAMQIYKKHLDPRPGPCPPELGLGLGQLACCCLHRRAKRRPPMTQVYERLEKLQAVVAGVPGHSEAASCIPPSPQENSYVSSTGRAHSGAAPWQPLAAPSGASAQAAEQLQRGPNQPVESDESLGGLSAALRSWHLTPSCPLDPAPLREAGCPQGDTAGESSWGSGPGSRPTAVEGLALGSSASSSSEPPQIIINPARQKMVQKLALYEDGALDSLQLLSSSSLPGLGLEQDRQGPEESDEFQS

Regarding `CC(C)(C)C(=O)Oc1ccc2[nH]c(NC(=O)c3cccc(Cn4nc(-c5cccnc5)ccc4=O)c3)nc2c1` [Example 1, 2,2-Dimethyl-propionic acid 2-[3-(6-oxo-3-pyridin-3-yl-6H-pyridazin-1-ylmethyl)-benzoylamino]-1H-benzoimidazol-5-yl ester], the 50% inhibitory concentration (IC50) (as a rule, the midpoint of a concentration-inhibition curve) on IRAK4 was under 100 nM; at IRAK1, 100 to 1000 nM. The corresponding values for `O=C(Nc1nc2ccccc2[nH]1)c1cccc(Cn2nc(-c3cccnc3)ccc2=O)c1` [Example 2, N-(1H-Benzoimidazol-2-yl)-3-(6-oxo-3-pyridin-3-yl-6H-pyridazin-1-ylmethyl)-benzamide] are 100 to 1000 nM and under 100 nM. On to `Cn1c(NC(=O)c2cccc(Cn3nc(-c4cccnc4)ccc3=O)c2)nc2ccccc21` [Example 3, N-(1-Methyl-1H-benzoimidazol-2-yl)-3-(6-oxo-3-pyridin-3-yl-6H-pyridazin-1-ylmethyl)-benzamide], for which, at IRAK4, the half-maximal inhibitory concentration (IC50) fell in the range of 1000 to 5000 nM.

As for `COC(=O)c1ccc2[nH]c(NC(=O)c3cccc(Cn4nc(-c5cccnc5)ccc4=O)c3)nc2c1` [Example 4, 2-[3-(6-Oxo-3-pyridin-3-yl-6H-pyridazin-1-ylmethyl)-benzoylamino]-1H-benzoimidazole-5-carboxylic acid methyl ester], the IC50 on IRAK4 was 1000 to 5000 nM.

Consider `O=C(Nc1nc2cc(CO)ccc2[nH]1)c1cccc(Cn2nc(-c3cccnc3)ccc2=O)c1` [Example 5, N-(5-Hydroxymethyl-1H-benzoimidazol-2-yl)-3-(6-oxo-3-pyridin-3-yl-6H-pyridazin-1-ylmethyl)-benzamide], for which the concentration for half-maximal inhibition (IC50) at IRAK4 and on IRAK1 was under 100 nM in each case. As for `CN(C)C(=O)Cc1ccc2[nH]c(NC(=O)c3cccc(Cn4nc(-c5cccnc5)ccc4=O)c3)nc2c1` [Example 6, N-(5-Dimethylcarbamoylmethyl-1H-benzoimidazol-2-yl)-3-(6-oxo-3-pyridin-3-yl-6H-pyridazin-1-ylmethyl)-benzamide], the IC50 at IRAK4 and on IRAK1 was under 100 nM in each case. Regarding `O=C(Nc1nc2ccccc2[nH]1)c1cccc(Cn2nc(-c3ccc(CO)nc3)ccc2=O)c1` [Example 7, N-(1H-Benzoimidazol-2-yl)-3-[3-(6-hydroxymethyl-pyridin-3-yl)-6-oxo-6H-pyridazin-1-ylmethyl]-benzamide], on IRAK4, the half-inhibitory concentration (IC50) is under 100 nM.

As for `O=C(Nc1nc2ccccc2[nH]1)c1cccc(Cn2nc(-c3cncnc3)ccc2=O)c1` [Example 8, N-(1H-Benzoimidazol-2-yl)-3-(6-oxo-3-pyrimidin-5-yl-6H-pyridazin-1-ylmethyl)-benzamide], the IC50 at IRAK4 and at IRAK1 was 100 to 1000 nM throughout. For `Nc1ccc(-c2ccc(=O)n(Cc3cccc(C(=O)Nc4nc5ccccc5[nH]4)c3)n2)cn1` [Example 9, 3-[3-(6-Amino-pyridin-3-yl)-6-oxo-6H-pyridazin-1-ylmethyl]-N-(1H-benzoimidazol-2-yl)-benzamide], the IC50 on IRAK4 and on IRAK1 was under 100 nM throughout. Take `Cc1cc(=O)n(Cc2cccc(C(=O)Nc3nc4ccccc4[nH]3)c2)nc1-c1cccnc1` [Example 10]: on IRAK1, the 50% inhibitory concentration (IC50) was 100 to 1000 nM. Take `CN(C)Cc1ccc(-c2ccc(=O)n(Cc3cccc(C(=O)Nc4nc5ccccc5[nH]4)c3)n2)cn1` [Example 11, N-(1H-benzo[d]imidazol-2-yl)-3-((3-(6-((dimethylamino)methyl)pyridin-3-yl)-6-oxopyridazin-1(6H)-yl)methyl)benzamide]: the IC50 on IRAK4 and at IRAK1 was 1000 to 5000 nM each time. For the molecule `Cc1ccncc1-c1ccc(=O)n(Cc2cccc(C(=O)Nc3nc4ccccc4[nH]3)c2)n1` [Example 12, N-(1H-benzo[d]imidazol-2-yl)-3-((3-(4-methylpyridin-3-yl)-6-oxopyridazin-1(6H)-yl)methyl)benzamide], on IRAK4, the concentration for half-maximal inhibition (IC50) lay in the range of 100 to 1000 nM.

As for `Cc1cc(-c2ccc(=O)n(Cc3cccc(C(=O)Nc4nc5ccccc5[nH]4)c3)n2)cnn1` [Example 13, N-(1H-benzo[d]imidazol-2-yl)-3-((3-(6-methylpyridazin-4-yl)-6-oxopyridazin-1(6H)-yl)methyl)benzamide], the IC50 on IRAK4 and on IRAK1 was 100 to 1000 nM throughout. As for `CN(C)Cc1cncc(-c2ccc(=O)n(Cc3cccc(C(=O)Nc4nc5ccccc5[nH]4)c3)n2)c1` [Example 14, N-(1H-benzo[d]imidazol-2-yl)-3-((3-(5-((dimethylamino)methyl)pyridin-3-yl)-6-oxopyridazin-1(6H)-yl)methyl)benzamide], the IC50 on IRAK4 lay within 1000 to 5000 nM.

`COc1cc2nc(NC(=O)c3cccc(Cn4nc(-c5cccnc5)ccc4=O)c3)[nH]c2cc1OC` [Example 15, N-(5,6-dimethoxy-1H-benzo[d]imidazol-2-yl)-3-((6-oxo-3-(pyridin-3-yl)pyridazin-1(6H)-yl)methyl)benzamide]: the figures for the IC50 on IRAK4 and at IRAK1 were under 100 nM and 100 to 1000 nM, respectively.

For the molecule `COc1ccc2[nH]c(NC(=O)c3cccc(Cn4nc(-c5cccnc5)ccc4=O)c3)nc2c1` [Example 16, N-(5-methoxy-1H-benzo[d]imidazol-2-yl)-3-((6-oxo-3-(pyridin-3-yl)pyridazin-1(6H)-yl)methyl)benzamide], the IC50 was 100 to 1000 nM at IRAK4 and under 100 nM on IRAK1. As to `O=C(Nc1nc2ccccc2[nH]1)c1cccc(Cn2nc(-c3cncc(CO)c3)ccc2=O)c1` [Example 17, N-(1H-Benzoimidazol-2-yl)-3-[3-(5-hydroxymethyl-pyridin-3-yl)-6-oxo-6H-pyridazin-1-ylmethyl]-benzamide], the IC50 at IRAK4 and at IRAK1 was under 100 nM throughout.
